Results: ChEMBL document CHEMBL4340575, “Design, synthesis and biological evaluation of novel aryl-acrylic derivatives as novel indoleamine-2,3-dioxygenase 1 (IDO1) inhibitors” (Bioorg Med Chem, 2019)

What was measured:
[1] = target: T1, Indoleamine 2,3-dioxygenase 1 (Homo sapiens, UniProt P14902); assay: Inhibition of purified recombinant human IDO1 using L-tryptophan substrate incubated fro 30 mins
[2] = target: T1, Indoleamine 2,3-dioxygenase 1; assay: Inhibition of IDO1 in interferon-gamma-induced human HeLa cells using L-tryptophan substrate incubated for 24 hrs; format: cell-based
HeLa = assay: Toxicity in human HeLa cells assessed as reduction in cell viability; format: cell-based

T1 sequence (P14902 whole entry): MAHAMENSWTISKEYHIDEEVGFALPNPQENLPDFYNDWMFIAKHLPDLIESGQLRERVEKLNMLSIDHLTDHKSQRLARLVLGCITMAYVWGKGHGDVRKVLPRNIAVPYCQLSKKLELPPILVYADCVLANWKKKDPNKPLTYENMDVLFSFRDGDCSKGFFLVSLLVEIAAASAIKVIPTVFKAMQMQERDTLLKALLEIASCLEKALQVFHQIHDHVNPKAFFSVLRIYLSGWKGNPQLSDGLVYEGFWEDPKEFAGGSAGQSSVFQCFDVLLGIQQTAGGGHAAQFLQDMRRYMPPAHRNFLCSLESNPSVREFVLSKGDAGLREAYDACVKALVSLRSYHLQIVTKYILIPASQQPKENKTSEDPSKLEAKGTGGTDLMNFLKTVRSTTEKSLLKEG

IC50 [1] [µM] | IC50 [2] [µM] | Structure (SMILES) | Activity (HeLa)
12.3 | 2.83 | CCCCN(CCCC)c1ccc(/C(C)=C/C(=O)O)cc1NC(=O)N/N=C/c1ccccc1C(F)(F)F | Non-Toxic
10.1 | 1.95 | C/C(=C\C(=O)O)c1ccc(N(CC(C)C)CC(C)C)c(NC(=O)N/N=C/c2ccccc2F)c1 | Non-Toxic
10.2 | 1.02 | C/C(=C\C(=O)O)c1ccc(N(CC(C)C)CC(C)C)c(NC(=O)N/N=C/c2ccc(Cl)cc2)c1 | Non-Toxic

Further lines, the molecule ahead of its results:

Structure (SMILES) | IC50 [1] [µM] | IC50 [2] [µM] | Activity (HeLa)
CCCCN(CCCC)c1ccc(/C(C)=C/C(=O)O)cc1NC(=O)N/N=C/c1ccc(Cl)cc1 | 14.4 | 3.87 | Non-Toxic
C/C(=C\C(=O)O)c1ccc(N2CCOCC2)c(-n2cc(CNc3ccc(F)cc3)nn2)c1 | 58.3 | 20 | –
